Paper doi:10.1101/525105v1 (biorxiv, 2019)

What was measured:
[1] = molecular target: HIV-1 integrase (XpressBio kit) (HIV-1 M:B_HXB2R, UniProt P04585); assay: HIV-1 integrase assay kit; format: biochemical
in vitro [2] = settings: human, tzm-bl cells
in vitro [3] = settings: human, lc5-ric cells
[4] = molecular target: HIV-1 RT (Roche colorimetric reverse transcriptase assay kit) (HIV-1 M:B_HXB2R, UniProt P04585); assay: colorimetric RT polymerase assay; format: biochemical
HIV-1IIIB = assay: microbe, parasite or virus in culture; parameters: species or system LC5-RIC; settings: Human immunodeficiency virus 1, 48 h, read-out: IC50 HIV-1IIIB
E. coli RNase H = molecular target: T1, E. coli RNase H (Escherichia coli, UniProt P0A7Y4); assay: RNase H assay; format: biochemical
T1 sequence (P0A7Y4 1-155): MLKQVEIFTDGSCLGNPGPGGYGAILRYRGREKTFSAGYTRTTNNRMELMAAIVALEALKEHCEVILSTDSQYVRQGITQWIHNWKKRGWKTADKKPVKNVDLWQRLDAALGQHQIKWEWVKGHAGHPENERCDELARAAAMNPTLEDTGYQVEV

AMV RNase H = assay: RNase H assay; format: biochemical, Avian myeloblastosis virus; settings: conditions not printed for this enzyme

SMILES	IC50 [1]	CC50 (in vitro [2])	CC50 at 48 h (in vitro [3])	IC50 [4]	IC50 (HIV-1IIIB)	IC50 (E. coli RNase H)	IC50 (AMV RNase H)
CC(C)Oc1ccc2cccnc2c1-c1cccc2ccccc12 [B#24, 7-(Isopropyloxy)-8-(naphth-1-yl)quinoline]	> 100 µM	68.5 ± 17.1 µM	86.5 ± 3.7 µM	> 100 µM	7.6 ± 0.2 µM	44.3 ± 6.4 µM	> 100 µM
CCN(CC)C(=O)Oc1ccc2cccnc2c1-c1cccc2cccnc12 [B#58, 7-[(Diethylamino)carbonyloxy]-8,8'-biquinolyl]		> 200 µM			> 200 µM		
CC(C)Oc1ccc2cccnc2c1-c1cccc2cccnc12 [B#57, 7-(Isopropyloxy)-8,8′-biquinolyl]	> 100 µM	> 200 µM	> 200 µM	> 100 µM	> 200 µM	> 100 µM	> 100 µM
CC(C)Oc1ccc2ccccc2c1-c1cccc2cccnc12 [B#59, 2-(Isopropyloxy)-1-(quinol-8-yl)naphthalene]		> 100 µM	144 ± 7.7 µM		39.5 ± 1.7 µM		
CCN(CC)OC(=O)c1ccc2ccccc2c1-c1cccc2cccnc12 [B#60, 2-[(Diethylamino)oxycarbonyl]-1-(quinol-8-yl)naphthalene]		69.3 ± 4.9 µM	71.4 ± 2.8 µM		50.1 ± 3.7 µM		
Cc1cc(/C=C/C#N)cc(C)c1Nc1ccnc(Nc2ccc(C#N)cc2)n1 [rilpivirine, reference compound]				~0.001 µM		> 10 µM	> 10 µM
